# Entries after “also recorded” stand apart in the source; their conditions may differ.
# Legend:
# [1] = test system: seasonal allergic rhinitis patients; assay: Double-blinded, randomized clinical trials in seasonal allergic rhinitis patients
# Procedure: Efficacy endpoints in all the studies were Total Symptom Score, Total Nasal Symptom Score, Total Non-nasal Symptom Score, and Health Quality of Life (HQOL) analysis in efficacy trials. […] This parameter measures the total symptom relief by the patient after 24 hours before taking the next day dose.
# [2] = test system: human basophilic leukocyte cells; details: in vitro; cited from earlier work
# human basophils = details: ionomycin 500 ng/ml; 0.1, 1.0 and 10 μM desloratadine; 4 hours
# Procedure: Mixed leukocyte suspensions containing basophils were prepared either using double-Percoll density centrifugation as described (Schroeder, et al., J. Immunol.,1994, Vol. 153: 1808, or by a combination of countercurrent elutriation and Percoll density centrifugation protocols (MacGlashan, et al., J. Immunol.,1994, Vol. 153:3006-3016). The percentages of basophils obtained using these protocols typically ranged between 5-50% and 10-30%, respectively, and were determined by counting Alcian blue positive and negative stained cells on a Spiers-Levy chamber (Gilbert and Ornstein, 1975). For some experiments, the basophils were additionally purified to >99.9% using a negative-selection protocol (Miltenyi Corp., Auburn, Calif.). […] For the analysis of IL-4 mRNA expression, cells in C-IMDM were cultured in autoclaved (RNase-free) 1.5 ml microcentrifuge tubes (see below), since this allowed for a more precise way to quantitatively isolate mRNA without the need for transferring cells from culture wells before extraction. […] Histamine, LTC4, and IL-4 were all measured in aliquots of culture supernatant taken at 4 hours. […] LTC4 was measured by an in-house RIA (MacGlashan, et al., J. Immunol. 1986, Vol.136:2231-2239). IL-4 protein was measured by a commercial ELISA (Biosource International). […]
# IL-4 mRNA = details: desloratadine 10 μM
# Procedure: Cultures for the analysis of IL-4 mRNA were performed in 1.5 ml polypropylene microcentrifuge tubes, as described above. […] Total RNA was isolated using the RNAzol protocol (Tel-test Inc., Friendswood, Tex.) after 2 hours incubation, which is the time that IL-4 message expression peaks using IgE-dependent activation (Schroeder, et al., J. Immunol.1997, Vol.158:5448-5454). Following isopropanol precipitation, the RNA was washed with 70% ethanol and dried under vacuum. Subsequently, the RNA was resuspended in 25 μl of diethipyrocarbonate (DEPC)-treated water and stored at −80° C. Reverse Transcription (RT) and polymerase chain reaction (PCR) were performed with serial dilutions of RNA as previously detailed (MacGlashan, et al., J. Immunol, 1994; Vol. 152:3006-3016; Schroeder, at al., J. Immunol., 1997, Vol. 158: 5448-5454) using the GeneAmp RNA PCR kit (Perkin-Elmer Cetus, Norwalk, Conn.). PCR products were visualized in 3% agrose gels using ethidium bromide staining.
# Total RNA was isolated after 2 h and used for dilutional RT-PCR analysis to compare message expression for IL-4 and the housekeeping gene, hypoxanthine phosphoribosyl transferase (HPRT) (panel a).
# For these experiments, we used a dilutional RT-PCR protocol to provide a semi-quantitative analysis.
# endothelial cells = details: in vitro; cited from earlier work
# basophilic cells = details: relatively high concentrations; cited from earlier work
SMILES,reduction of nasal symptoms versus placebo ([1]; 5 mg),total symptom scores ([1]; 5 mg once daily),"AM NOW total symptom score, full 24 hour dosing interval ([1]; 5 mg to 20 mg dosage range)","differences in effectiveness across subgroups defined by gender, age, or race ([1]; 5 mg to 20 mg dosage range)",IgE- and non-IgE-mediated histamine release [2],effect on histamine secretion induced by ionomycin (human basophils),effect on expression of the housekeeping gene HPRT (IL-4 mRNA),histamine-induced release of IL-6 and IL-8 (endothelial cells),inhibition of IL-4 and IL-13 secretion (basophilic cells)
Clc1ccc2c(c1)CCc1cccnc1C2=C1CCNCC1 [desloratadine],significantly (p<0.01) more effective than placebo,significantly reduced,Statistically significant (p<0.05) reductions,no significant differences,inhibits,lack of an effect; also recorded: unaffected,no effect; also recorded: unaffected,reduces,–
CC(C)(C)c1ccc(C(O)CCCN2CCC(C(O)(c3ccccc3)c3ccccc3)CC2)cc1 (stereo not drawn) [terfenadine],–,–,–,–,–,–,–,–,50%

# Reference: US6599914B2, “Inhibition of cytokine generation” (Schering Corporation, priority 2001, dated 2003)
